Article PMC5053523, “In Vitro Antibacterial Activity of Rhodanine Derivatives against Pathogenic Clinical Isolates” (PLoS ONE, 2016)
≈ marks a conversion by molar mass, not a printed value. Read-outs that look alike come from different tables or passages of the source.

How the values were obtained:
Format in all cases: cell-based
[1] = tested on: Acinetobacter baumannii; test: MIC with/without PMBN, Acinetobacter baumannii
Method: (§1) The MIC of the rhodanines and control antibiotics, in the presence of a sub-inhibitory concentration of colistin or polymixin B nonapeptide (PMBN), against Gram-negative bacteria was evaluated as described before. The antibacterial activity of the rhodanines was further investigated against E. coli SM1411Δ acrAB, a strain that is deficient in the multidrug-resistant AcrAB efflux pump, as described before.

[2] = tested on: K. pneumoniae; test: Broth microdilution MIC, K. pneumoniae
[3] = tested on: Vancomycin Resistant Staphylococcus aureus (VRSA); test: Broth microdilution MIC/MBC, VRSA; conditions: for MBC / MIC: VRSA
[4] = tested on: Candida albicans; test: MIC against Candida albicans; conditions: table prints none, read-out: MIC
[5] = tested on: Klebsiella pneumoniae; test: MIC with/without PMBN, Klebsiella pneumoniae
Method: as §1

[6] = tested on: methicillin-resistant Staphylococcus aureus (MRSA); test: Broth microdilution MIC/MBC, MRSA
[7] = tested on: vancomycin resistant enterococci (VRE) E. faecium; test: Broth microdilution MIC/MBC, VRE E. faecium; conditions: for MIC: read-out: MIC
[8] = tested on: Escherichia coli O157:H7; test: MIC with/without sub-MIC colistin, Escherichia coli O157:H7
Method: as §1

[9] = tested on: Bacillus anthracis; test: microbe, parasite or virus in culture
[10] = tested on: vancomycin resistant enterococci (VRE) E. faecalis; test: Broth microdilution MIC/MBC, VRE E. faecalis; conditions: for MIC: read-out: MIC
[11] = E. faecium HM 968 Strain ERV102
[12] = E. faecium NR31914 Strain E0120
[13] = E. faecium Patient #1–1 NR-31903
[14] = E. faecalis NR31972 Strain SF 28073

O=C(O)[C@H](Cc1ccccc1)N1C(=O)/C(=C/c2cccc(Cc3ccc(Cl)c(Cl)c3)c2)SC1=S [Rh 3]
MIC ([1]; Acinetobacter baumannii ATCC BAA747, PMBN (+) 4 μg/mL, read-out: MIC): >64 µM
MIC ([1]; Acinetobacter baumannii ATCC BAA19606, PMBN (+) 4 μg/mL, read-out: MIC): >64 µM
MIC ([1]; Acinetobacter baumannii, ATCCBAA747): > 128 µM
MIC ([1]; Acinetobacter baumannii, ATCCBAA19606): > 128 µM
MIC ([2]; K. pneumoniae NR-15417): >128 µM
MIC ([2]; Klebsiella pneumoniae): > 128 µM
MIC50 ([3]; 15 VRSA strains, read-out: MIC 50): 8 µM (≈ 4.23 µg/mL)
MIC90 ([3]; 15 VRSA strains, read-out: MIC 90): 8 µM (≈ 4.23 µg/mL)
MBC ([3]; VRSA 1, read-out: MBC): 32 µM (≈ 16.9 µg/mL)
MIC ([3]; VRSA 1, read-out: MIC): 8 µM (≈ 4.23 µg/mL)
MBC ([3]; VRSA 2, read-out: MBC): 16 µM (≈ 8.46 µg/mL)
MIC ([3]; VRSA 2, read-out: MIC): 8 µM (≈ 4.23 µg/mL)
MBC ([3]; VRSA 3a, read-out: MBC): 16 µM (≈ 8.46 µg/mL)
MIC ([3]; VRSA 3a, read-out: MIC): 16 µM (≈ 8.46 µg/mL)
MBC ([3]; VRSA 3b, read-out: MBC): 8 µM (≈ 4.23 µg/mL)
MIC ([3]; VRSA 3b, read-out: MIC): 8 µM (≈ 4.23 µg/mL)
MBC ([3]; VRSA 4, read-out: MBC): 32 µM (≈ 16.9 µg/mL)
MIC ([3]; VRSA 4, read-out: MIC): 8 µM (≈ 4.23 µg/mL)
MBC ([3]; VRSA 5, read-out: MBC): 64 µM (≈ 33.8 µg/mL)
MIC ([3]; VRSA 5, read-out: MIC): 8 µM (≈ 4.23 µg/mL)
MBC ([3]; VRSA 6, read-out: MBC): 16 µM (≈ 8.46 µg/mL)
MIC ([3]; VRSA 6, read-out: MIC): 8 µM (≈ 4.23 µg/mL)
MBC ([3]; VRSA 7, read-out: MBC): 32 µM (≈ 16.9 µg/mL)
MIC ([3]; VRSA 7, read-out: MIC): 8 µM (≈ 4.23 µg/mL)
MBC ([3]; VRSA 8, read-out: MBC): 16 µM (≈ 8.46 µg/mL)
MIC ([3]; VRSA 8, read-out: MIC): 8 µM (≈ 4.23 µg/mL)
MBC ([3]; VRSA 9, read-out: MBC): 16 µM (≈ 8.46 µg/mL)
MIC ([3]; VRSA 9, read-out: MIC): 8 µM (≈ 4.23 µg/mL)
MBC ([3]; VRSA 10, read-out: MBC): 64 µM (≈ 33.8 µg/mL)
MIC ([3]; VRSA 10, read-out: MIC): 8 µM (≈ 4.23 µg/mL)
MBC ([3]; VRSA 11a, read-out: MBC): 16 µM (≈ 8.46 µg/mL)
MIC ([3]; VRSA 11a, read-out: MIC): 8 µM (≈ 4.23 µg/mL)
MBC ([3]; VRSA 11b, read-out: MBC): 16 µM (≈ 8.46 µg/mL)
MIC ([3]; VRSA 11b, read-out: MIC): 8 µM (≈ 4.23 µg/mL)
MBC ([3]; VRSA 12, read-out: MBC): 32 µM (≈ 16.9 µg/mL)
MIC ([3]; VRSA 12, read-out: MIC): 8 µM (≈ 4.23 µg/mL)
MBC ([3]; VRSA 13, read-out: MBC): 32 µM (≈ 16.9 µg/mL)
MIC ([3]; VRSA 13, read-out: MIC): 8 µM (≈ 4.23 µg/mL)
MIC ([4]; ATCC10231, C. albicans ATCC 10231, unit from abstract): > 64 µM
MIC ([4]; C. albicans NR 29434, unit from abstract): > 64 µM
MIC ([4]; C. albicans NR 29435, unit from abstract): > 64 µM
MIC ([4]; C. albicans NR29437, unit from abstract): > 64 µM
MIC ([4]; C. albicans NR29438, unit from abstract): > 64 µM
MIC ([4]; C. albicans NR 29446, unit from abstract): 64 µM (≈ 33.8 µg/mL)
MIC ([4]; C. albicans NR 29448, unit from abstract): > 64 µM
MIC ([4]; C. albicans NR 29449, unit from abstract): > 64 µM
MIC ([4]; C. albicans NR 29453, unit from abstract): > 64 µM
MIC ([4]; C. albicans NR 294436, unit from abstract): > 64 µM
MIC ([5]; Klebsiella pneumoniae ATCC BAA 1706, PMBN (+) 4 μg/mL): >64 µM
MIC ([5]; Klebsiella pneumoniae ATCC BAA 2146, PMBN (+) 4 μg/mL): >64 µM
MIC ([5]; Klebsiella pneumoniae, BAA1706): > 128 µM
MIC ([5]; Klebsiella pneumoniae, BAA2146): > 128 µM
MIC50 ([6]; 11 MRSA strains): 8 µM (≈ 4.23 µg/mL)
MIC90 ([6]; 11 MRSA strains): 16 µM (≈ 8.46 µg/mL)
MBC ([6]; MRSA NRS 1): 8 µM (≈ 4.23 µg/mL)
MIC ([6]; MRSA NRS 1): 8 µM (≈ 4.23 µg/mL)
MBC ([6]; MRSA NRS 19): 8 µM (≈ 4.23 µg/mL)
MIC ([6]; MRSA NRS 19): 8 µM (≈ 4.23 µg/mL)
MBC ([6]; MRSA NRS 37): 16 µM (≈ 8.46 µg/mL)
MIC ([6]; MRSA NRS 37): 8 µM (≈ 4.23 µg/mL)
MBC ([6]; MRSA NRS 107): 32 µM (≈ 16.9 µg/mL)
MIC ([6]; MRSA NRS 107): 8 µM (≈ 4.23 µg/mL)
MBC ([6]; MRSA NRS 119): 8 µM (≈ 4.23 µg/mL)
MIC ([6]; MRSA NRS 119): 8 µM (≈ 4.23 µg/mL)
MBC ([6]; MRSA NRS 382): 32 µM (≈ 16.9 µg/mL)
MIC ([6]; MRSA NRS 382): 16 µM (≈ 8.46 µg/mL)
MBC ([6]; MRSA NRS 383): 8 µM (≈ 4.23 µg/mL)
MIC ([6]; MRSA NRS 383): 8 µM (≈ 4.23 µg/mL)
MBC ([6]; MRSA NRS 384): 16 µM (≈ 8.46 µg/mL)
MIC ([6]; MRSA NRS 384): 16 µM (≈ 8.46 µg/mL)
MBC ([6]; MRSA NRS 385): 16 µM (≈ 8.46 µg/mL)
MIC ([6]; MRSA NRS 385): 16 µM (≈ 8.46 µg/mL)
MBC ([6]; MRSA NRS 386): 32 µM (≈ 16.9 µg/mL)
MIC ([6]; MRSA NRS 386): 8 µM (≈ 4.23 µg/mL)
MBC ([6]; MRSA NRS 387): 32 µM (≈ 16.9 µg/mL)
MIC ([6]; MRSA NRS 387): 16 µM (≈ 8.46 µg/mL)
MBC ([7]; E. faecium E417 HM-965): 64 µM (≈ 33.8 µg/mL)
MIC ([7]; E. faecium E417 HM-965): 4 µM (≈ 2.11 µg/mL)
MBC ([7]; E. faecium E1071 NR-28978): > 64 µM
MIC ([7]; E. faecium E1071 NR-28978): 8 µM (≈ 4.23 µg/mL)
MBC [7, 11]: 64 µM (≈ 33.8 µg/mL)
MIC [7, 11]: 4 µM (≈ 2.11 µg/mL)
MBC [7, 12]: 64 µM (≈ 33.8 µg/mL)
MIC [7, 12]: 8 µM (≈ 4.23 µg/mL)
MBC [7, 13]: 64 µM (≈ 33.8 µg/mL)
MIC [7, 13]: 4 µM (≈ 2.11 µg/mL)
MIC ([8]; Escherichia coli O157:H7 ATCC 35150, colistin (+) […], read-out: MIC): >64 µM
MIC ([8]; Escherichia coli O157:H7 ATCC 700728, colistin (+) […], read-out: MIC): >64 µM
MIC ([8]; Escherichia coli, ATCC35150): > 128 µM
MIC ([8]; Escherichia coli, ATCC700728): > 128 µM
MBC ([9]; Bacillus anthracis AMES35): 2 µM (≈ 1.06 µg/mL)
MIC ([9]; Bacillus anthracis AMES35): 2 µM (≈ 1.06 µg/mL)
MBC ([9]; Bacillus anthracis UM23): 2 µM (≈ 1.06 µg/mL)
MIC ([9]; Bacillus anthracis UM23): 2 µM (≈ 1.06 µg/mL)
MBC ([9]; Bacillus anthracis Weybridge): 2 µM (≈ 1.06 µg/mL)
MIC ([9]; Bacillus anthracis Weybridge): 2 µM (≈ 1.06 µg/mL)
MBC ([10]; E. faecalis ERV103 HM-934): 8 µM (≈ 4.23 µg/mL)
MIC ([10]; E. faecalis ERV103 HM-934): 4 µM (≈ 2.11 µg/mL)
MBC [10, 14]: 64 µM (≈ 33.8 µg/mL)
MIC [10, 14]: 4 µM (≈ 2.11 µg/mL)
MBC ([10]; E. faecalis R712 HM-335): 4 µM (≈ 2.11 µg/mL)
MIC ([10]; E. faecalis R712 HM-335): 4 µM (≈ 2.11 µg/mL)
MBC ([10]; E. faecalis S613 HM-334): 8 µM (≈ 4.23 µg/mL)
MIC ([10]; E. faecalis S613 HM-334): 4 µM (≈ 2.11 µg/mL)
MBC ([10]; E. faecalis TX0104 HM-201): 8 µM (≈ 4.23 µg/mL)
MIC ([10]; E. faecalis TX0104 HM-201): 4 µM (≈ 2.11 µg/mL)
